The values that follow come from patent US9101628B2, “Methods and composition of treating a flaviviridae family viral infection” (The Board of Trustees of the Leland Stanford Junior …, priority 2007, dated 2015).

Where two headings read alike, the source gives them in different places.

The IC50 is the concentration needed to halve the response being measured. Lower therefore signals inhibition by little substance. The CC50 is the concentration that lowers cell viability or growth by half. A lower CC50 goes with greater toxicity to the cells. What is called EC50 is the concentration giving half of the maximal effect.

The target in series [1] is hERG channel (Homo sapiens, UniProt Q12809).
In series [2] the target is T1, W55R NS4B mutant (Hepatitis C virus genotype 1a, UniProt P27958, A1893V/D1840G/F1898S/L1839I/R1905H/S1900A/W1766R).
T1 construct: made in house; host or cells: in vitro transcription/translation, inferred from the way wild-type NS4B-GFP was made; not repeated for the mutant
The series is described as follows: In vitro microfluidic RNA binding assay, W55R NS4B mutant. Details: species or system HCV. Particulars: 10 nM clemizole.

Series [3] has as its system W55R mutant J6/JFH RNA. In words: Luciferase reporter-linked replication assay, W55R mutant. It is filed as cell-based, HCV. From the text:
Two of the clemizole-resistant NS4B mutants were characterized in detail. The first, W55R is depicted in FIG. 6a. It involves the substitution of an arginine for the tryptophan at amino acid 55 within a predicted cytoplasmically-oriented segment of NS4B. This mutation is sufficient to confer a clemizole-resistant phenotype in cells: Huh7.5 cells transfected with either whole cell RNA extracted from the W55R mutant cells (FIG. 6b) or with in vitro-transcribed J6/JFH RNA encoding this point mutation and a linked luciferase reporter gene (FIG. 6c) were unaffected by 10 μM clemizole.
The plasmid FL-J6/JFH-5′C19Rluc2AUbi that consists of the full-length HCV genome and expresses Renilla luciferase was a gift from Dr. Charles M. Rice. The W55R mutation was introduced into this plasmid by site-directed mutagenesis (using the QuikChange kit (Stratagene)).
Medium was changed daily.
(In a reporter assay the amount or activity of a reporter protein is the signal.)

Series [4] concerns infectious HCV clone (J6/JFH). In words: Real-time PCR assay of HCV replication in HCV-infected Huh7.5 cells. The format is cell-based. Particulars: real-time PCR (FIG. 8). The protocol: 5×10^4 Huh7.5 ells were infected with cell culture-grown HCV titered at 1.4×10^4 TCID50/ml, as described. 2 hours after infection, cells were washed three times in culture medium. Cells were then treated daily with various concentrations of clemizole. After 72 hours, samples were subjected to the viability assay described above, following which TRIzol Reagent (Invitrogen) was added and total cell RNA was extracted in triplicates according to the manufacturer's instructions. Reverse transcription was then performed using random hexamers and Superscript II reverse transcriptase (Invitrogen, Carlsbad, Calif.). Real-time PCR was performed on the resulting cDNA to quantify the amounts of HCV and actin RNA (in separate reactions) in each sample. Standards were made using an in vitro-transcribed HCV RNA and human actin standard (Applied Biosystems, Foster City, Calif.). HCV was quantified using primers […] (SEQ ID NO 8) and […] (SEQ ID NO 9) and probe 6-carboxyfluorescein-[…]-6 (SEQ ID NO 10) carboxytetramethylrhodamine. Actin was quantified using beta-actin control reagents (Applied Biosystems) according to the manufacturer's instructions. HCV RNA level was adjusted to actin level and normalized relative to untreated samples.
In general terms: In qPCR the cycle at which signal appears reflects the starting amount.

Series [5] in a line: Alamar Blue-based cell viability assay. Further details: species or system human. Particulars: human. The protocol: (§1) Total volume per well is 100 μl.
(§2) (or until there is a color change).
For orientation: Alamar Blue is a resazurin reagent that responds to reducing activity.

In series [6] the test system is Huh7.5 cells. In words: Alamar Blue-based cell viability assay. Details: species or system human. Particulars: at antiviral concentrations, Alamar Blue, 72 hr. The protocol: as §1, §2
Series [7] concerns R214Q NS4B mutant HCV. In words: Luciferase reporter linked replication assay, R214Q mutant. It is filed as cell-based.
Series [8] relates to subgenomic Bart 79I HCV RNA replicon (genotype 1b). In words: microbe, parasite or virus in culture. Particulars: Hepatitis C virus; genotype 1b luciferase reporter, 72 hr; read-out: EC50 HCV replication. The format is cell-based.
The test system of series [9] is HCV (genotype 4). In words: Treatment of patients chronically infected with HCV. The format is in vivo, human. Particulars: clemizole 100 milligrams p.o. BID alone, 4 weeks, 3 patients. The protocol: After the first four weeks of clemizole monotherapy, pegylated interferon (180 micrograms Pegasus (Roche) s.q. per week) was added.
For series [10], the target named is NS4B (binding to 3′ terminus negative strand HCV RNA) (Hepatitis C virus genotype 1a, UniProt P27958). The series is described as follows: In vitro microfluidic NS4B RNA binding assay. Particulars: wild type NS4B, 10 nM clemizole.
Series [11] concerns replicon harboring the A156T mutation. In words: Whole cell RNA electroporation, SCH503034 resistant clone. The format is cell-based, HCV.
For series [12], the system named is replicon harboring the W55R mutation. The series is described as follows: Whole cell RNA electroporation, clemizole resistant clone. The format is cell-based, HCV. Particulars: 10 μM clemizole; 2.5 μM SCH503034. The protocol: Whole cell RNA was extracted from clemizole-resistant replicon clones and from untreated replicon cells using TRIzol reagent (Invitrogen). Equal amounts of whole cell RNA (50 μg) were electroporated into Huh7.5 cells as described above. Cells were grown under G418 selection in the presence or absence of clemizole for 3 weeks. The number of colonies was determined using Image J (NIH) following fixation and staining with Crystal violet.
Cells transfected with whole cell RNA extracted from wild type replicon cells were sensitive to both drugs.

Series [13] relates to genotype 1b subgenomic HCV replicon (Bart 79I). It is filed as cell-based.
The target in series [14] is T2, HuR (Homo sapiens, UniProt Q15717).
T2 construct: The open reading frames (ORF) of HuR and HuD were obtained from the ORFeome library of cDNA clones (Open biosystems); V5-his (C); made in house; host or cells: cell-free expression on the microfluidic device, from pcDNA-Dest 40 carrying the ORFeome clone (Open Biosystems)
In words: HuR RNA binding by microfluidics (specificity of hits). Particulars: 0.1 mM. The protocol:
Specificity of hits identified in the small molecule screen: To determine the specificity of the hits identified in the small molecule screen, the HuR protein (one of the human RNA binding protein used to validate our RNA binding assay) was selected. […] Binding of HuR to the consensus 4A RNA sequence was tested in the presence of the inhibitory molecules shown to inhibit RNA binding by NS4B. […] Similarly, 0.1 mM of the identified compounds didn't have an inhibitory effect on binding of HuR to the 3′ terminus of the negative HCV RNA strand.

`COc1ccc(Cn2cnc3c(NS(C)(=O)=O)c(C)c(C)cc32)cc1` [Compound 106]: the half-maximal inhibitory concentration (IC50) in series [1] is more than 10 µM.
`Clc1ccc(Cn2c(CN3CCCC3)nc3ccccc32)cc1` [clemizole]: the “reduction of RNA binding” value in [2] and in [10] was approximately 2 fold throughout. Further, the “effect on replication of W55R mutant” value in [3] (10 μM clemizole) is reported as “unaffected”. Further, the “EC50 relative to the EC50 on the wild type RNA” value is 2.25 times in series [3] (W55R mutant) and approximately 5 times in [7]. Also, in series [4], the HCV replication levels entry is recorded as “inhibits HCV replication”. Also, the CC50 at 72 h came to 40 ± 5 µM in series [5] (genotype 1b experiments, Alamar Blue, 72 hr); 35 ± 0.5 µM in series [5] (genotype 2a experiments, Alamar Blue-based and CellTiter-Blue assay). For the same molecule, the cellular toxicity entry in series [6] was “no measurable toxicity”. Further, in series [8], the EC50 worked out at 23 ± 7 µM. Further, the “HCV viral loads in serum” value in series [9] is “decreased significantly”. Further, in series [11], the “sensitivity of Huh7.5 cells transfected with whole cell RNA from A156T clone” value is on record as “but not to clemizole”. Also, in series [12], the “sensitivity of Huh7.5 cells transfected with whole cell RNA from W55R clone” value is given as “unaffected”. For the same molecule, the “decrease of the frequency of resistant colonies selected with 1 μM of SCH503034” value in series [13] (4 μM clemizole added) is 6 folds; in series [13] (8 μM clemizole added), 18 folds. The “effect on binding of HuR to 4A RNA sequence” value in series [14] is “No inhibitory effect”.
